Data from patent US20230265055A1, “STAT INIHIBITORY COMPOUNDS AND COMPOSITIONS” (JANPIX LIMITED, priority 2020, published 2023).

Assays:
MV4-11 cells = test: MV4-11 Cell Cytotoxicity Assay; format: cell-based; conditions: Homo sapiens, 72 h incubation, CellTiter-Blue, read-out: IC50-MV-4-11 (NS)
Description: MV4-11 cells were grown in Iscove's Modified Dulbecco's Medium (IMDM) supplemented with 10% fetal bovine serum (FBS). 10,000 cells were plated per well in 96-well flat-bottom sterile culture plates with low-evaporation lids. After 24 h, inhibitors and a vehicle control (0.5% DMSO) were added and the cells were incubated for 72 h at 37° C. in 5% CO2. Inhibitors were examined in triplicate at a maximal concentration of 50 μM, followed by 1:2 dilutions in subsequent wells (25, 12.5, 6.25, 3.13, 1.56, 0.78, 0.39, 0.20 and 0.098 μM). After 72 h, the wells were treated with CellTiter-Blue® (20 μL/well), and the plates were incubated using standard cell culture conditions for 1 hour. Fluorescence was measured at 560/590 nm.

[1] = test system: normal human fibroblast (NHF) cells; test: NHF Cell Cytotoxicity Assay; format: cell-based; conditions: 72 hours, CellTiter-Blue, read-out: IC50—Pooled NHF
Description: Cell viability was examined a following treatment at various concentrations of inhibitor (0.097656-50 μM) using a cell Titer-Blue cell viability assay. 1×10^4 normal human fibroblast cells per well were plated in 96-well assay plates in culture medium. All cells were grown in DMEM, IMDM and RPMI-1640 were supplemented with 10% FBS. After 24 hours, test compounds and vehicle controls were added to appropriate wells so the final volume was 100 μl in each well. The cells were cultured for the desired test exposure period (72 hours) at 37° C. and 5% CO2. The assay plates were removed from 37° C. incubator and 20 μL/well of CellTiter-Blue® Reagent was added. […] For each sample well, value was normalized between the DMSO control and the highest concentration in case of plateau and converted into a percentage. In the absence of plateau, minimum lecture is obtained from a different sample within the same experiment. For each concentration, the four replicates are averaged, and standard deviation calculated. Data was fitted to a log(inhibitor) vs response curve with variable slope model using Microsoft Excel, obtaining IC50 and Hill slope variables.
A person skilled in the art would appreciate that a higher IC50 value in this NHF assay can indicate lower off-target effects.

Row | Structure (SMILES) | IC50 (MV4-11 cells) | IC50 [1]
1 | CCOc1cc(C(=O)O)ccc1N(Cc1cc(OC(C)C)cc(C2CC2)c1)C(=O)CN(Cc1ccccc1C#N)S(=O)(=O)c1cc(F)c(F)c(F)c1F [Compound 32, 4-[[2-[(2-cyanophenyl)methyl-(2,3,4,5-tetrafluorophenyl)sulfonyl-amino]acetyl]-[(3-cyclopropyl-5-isopropoxy-phenyl)methyl]amino]-3-ethoxy-benzoic acid] | 1200 to 6000 nM | 
2 | CCOc1cc(C(=O)O)ccc1N(Cc1cc(C2CC2)cc(C2CC2)c1)C(=O)CNS(=O)(=O)c1cc(F)c(F)c(F)c1F [Compound 47, 4-(N-(3,5-dicyclopropylbenzyl)-2-((2,3,4,5-tetrafluorophenyl)sulfonamido)acetamido)-3-ethoxy benzoic acid] | > 6000 nM | 
3 | CCOc1cc(C(=O)O)ccc1N(Cc1cc(C2CC2)cc(C2CC2)c1)C(=O)CN(Cc1c(F)cc(F)cc1F)S(=O)(=O)c1cc(F)c(F)c(F)c1F [Compound 12, 4-[(3,5-dicyclopropylphenyl)methyl-[2-[(2,3,4,5-tetrafluorophenyl)sulfonyl-[(2,4,6-trifluorophenyl)methyl]amino]acetyl]amino]-3-ethoxy-benzoic acid] | 400 to 1200 nM | 
4 | CCOc1cc(C(=O)O)ccc1N(Cc1cc(C2CC2)cc(C2CC2)c1)C(=O)CN(Cc1ccccc1C(F)(F)F)S(=O)(=O)c1c(Br)cc(F)c(F)c1F [Compound 21, 4-[[2-[(6-bromo-2,3,4-trifluoro-phenyl)sulfonyl-[[2-(trifluoromethyl)phenyl]methyl]amino]acetyl]-[(3,5-dicyclopropylphenyl)methyl]amino]-3-ethoxy-benzoic acid] | 1200 to 6000 nM | ≥ 24 µM
5 | CCOc1cc(C(=O)O)ccc1N(Cc1cccc(OC(C)C)c1)C(=O)CN(Cc1ccccc1C#N)S(=O)(=O)c1cc(F)c(F)c(F)c1F [Compound 33, 4-[[2-[(2-cyanophenyl)methyl-(2,3,4,5-tetrafluorophenyl)sulfonyl-amino]acetyl]-[(3-isopropoxyphenyl)methyl]amino]-3-ethoxy-benzoic acid] | 1200 to 6000 nM | 
6 | CCOc1cc(C(=O)O)c(F)cc1N(Cc1cc(C2CC2)cc(C2CC2)c1)C(=O)CN(Cc1ccccc1C#N)S(=O)(=O)c1cc(F)c(F)c(F)c1F [Compound 18, 4-[[2-[(2-cyanophenyl)methyl-(2,3,4,5-tetrafluorophenyl)sulfonyl-amino]acetyl]-[(3,5-dicyclopropylphenyl)methyl]amino]-5-ethoxy-2-fluoro-benzoic acid] | 400 to 1200 nM | ≥ 24 µM
7 | CCOc1cc(C(=O)O)ccc1N(Cc1cc(C2CC2)cc(N2CCCC2)c1)C(=O)CN(Cc1ccccc1C#N)S(=O)(=O)c1c(F)cc(F)c(F)c1F [Compound 23, 4-[[2-[(2-cyanophenyl)methyl-(2,3,4,6-tetrafluorophenyl)sulfonyl-amino]acetyl]-[(3-cyclopropyl-5-pyrrolidin-1-yl-phenyl)methyl]amino]-3-ethoxy-benzoic acid] | 1200 to 6000 nM | 
8 | CCOc1cc(C(=O)O)ccc1N(Cc1cc(C2CC2)cc(N2CCCC2)c1)C(=O)CN(Cc1ccccc1C#N)S(=O)(=O)c1c(Br)cc(F)c(F)c1F [Compound 36, 4-[[2-[(6-bromo-2,3,4-trifluoro-phenyl)sulfonyl-[(2-cyanophenyl)methyl]amino]acetyl]-[(3-cyclopropyl-5-pyrrolidin-1-yl-phenyl)methyl]amino]-3-ethoxy-benzoic acid] | 1200 to 6000 nM | ≥ 24 µM
9 | CCOc1cc(C(=O)O)ccc1N(Cc1cc(C2CC2)cc(C2CC2)c1)C(=O)CN(Cc1ccc(F)cc1Cl)S(=O)(=O)c1c(F)cc(F)c(F)c1F [Compound 15, 4-[[2-[(2-chloro-4-fluoro-phenyl)methyl-(2,3,4,6-tetrafluorophenyl)sulfonyl-amino]acetyl]-[(3,5-dicyclopropylphenyl)methyl]amino]-3-ethoxy-benzoic acid] | 1200 to 6000 nM | 
10 | O=C(O)c1ccc(N(Cc2cc(C3CC3)cc(C3CC3)c2)C(=O)CN(Cc2ccccc2Cl)S(=O)(=O)c2c(F)c(F)c(F)c(F)c2Cl)c(O)c1 [Compound 73, 4-(2-((2-chloro-N-(2-chlorobenzyl)-3,4,5,6-tetrafluorophenyl)sulfonamido)-N-(3,5-dicyclopropylbenzyl)acetamido)-3-hydroxybenzoic acid] | 400 to 1200 nM | ≥ 24 µM
11 | CCOc1cc(C(=O)O)c(F)cc1N(Cc1cc(C2CC2)cc(C2CC2)c1)C(=O)CN(Cc1ccccc1C#N)S(=O)(=O)c1c(F)cc(F)c(F)c1F [Compound 19, 4-[[2-[(2-cyanophenyl)methyl-(2,3,4,6-tetrafluorophenyl)sulfonyl-amino]acetyl]-[(3,5-dicyclopropylphenyl)methyl]amino]-5-ethoxy-2-fluoro-benzoic acid] | 1200 to 6000 nM | 
12 | O=C(O)c1ccc(N(Cc2cc(C3CC3)cc(C3CC3)c2)C(=O)CN(Cc2ccccc2Cl)S(=O)(=O)c2c(F)c(F)c(F)c(F)c2Cl)cc1O [Compound 76, 4-(2-((2-chloro-N-(2-chlorobenzyl)-3,4,5,6-tetrafluorophenyl)sulfonamido)-N-(3,5-dicyclopropylbenzyl)acetamido)-2-hydroxybenzoic acid] | 1200 to 6000 nM | ≥ 24 µM
13 | CCOc1cc(C(=O)O)ccc1N(Cc1cc(C2CC2)cc(C(C)(C)C)c1)C(=O)CN(Cc1ccccc1C#N)S(=O)(=O)c1c(F)cc(F)c(F)c1F [Compound 25, 4-[(3-tert-butyl-5-cyclopropyl-phenyl)methyl-[2-[(2-cyanophenyl)methyl-(2,3,4,6-tetrafluorophenyl)sulfonyl-amino]acetyl]amino]-3-ethoxy-benzoic acid] | 1200 to 6000 nM | 
14 | CCOc1cc(C(=O)O)ccc1N(Cc1cc(C2CC2)cc(C2CC2)c1)C(=O)CN(Cc1ccccc1F)S(=O)(=O)c1cc(F)c(F)c(F)c1F [Compound 11, 4-[(3,5-dicyclopropylphenyl)methyl-[2-[(2-fluorophenyl)methyl-(2,3,4,5-tetrafluorophenyl)sulfonyl-amino]acetyl]amino]-3-ethoxy-benzoic acid] | 1200 to 6000 nM | 
15 | CCOc1cc(C(=O)O)ccc1NC(=O)CN(Cc1ccccc1C#N)S(=O)(=O)c1cc(F)c(F)c(F)c1F [Compound 48, 4-(2-((N-(2-cyanobenzyl)-2,3,4,5-tetrafluorophenyl)sulfonamido)acetamido)-3-ethoxy benzoic acid] | 1200 to 6000 nM | 
16 | CCOc1cc(C(=O)O)ccc1N(Cc1cccc(N2CCCC2)c1)C(=O)CN(Cc1ccccc1C#N)S(=O)(=O)c1cc(F)c(F)c(F)c1F [Compound 26, 4-[[2-[(2-cyanophenyl)methyl-(2,3,4,5-tetrafluorophenyl)sulfonyl-amino]acetyl]-[(3-pyrrolidin-1-ylphenyl)methyl]amino]-3-ethoxy-benzoic acid] | 400 to 1200 nM | 
17 | CCOc1cc(C(=O)O)ccc1N(Cc1cc(C2CC2)cc(N2CCCC2)c1)C(=O)CN(Cc1ccccc1C#N)S(=O)(=O)c1cc(F)c(F)c(F)c1F [Compound 22, 4-[[2-[(2-cyanophenyl)methyl-(2,3,4,5-tetrafluorophenyl)sulfonyl-amino]acetyl]-[(3-cyclopropyl-5-pyrrolidin-1-yl-phenyl)methyl]amino]-3-ethoxy-benzoic acid] | 400 to 1200 nM | 
18 | COc1cc(C(=O)O)ccc1N(Cc1cc(C2CC2)cc(C(C)(C)C)c1)C(=O)CN(Cc1cnccc1C(F)(F)F)S(=O)(=O)c1c(F)c(F)cc(F)c1F [Compound 46, 4-(N-(3-(tert-butyl)-5-cyclopropylbenzyl)-2-((2,3,5,6-tetrafluoro-N-((4-(trifluoromethyl)pyridin-3-yl)methyl)phenyl)sulfonamido)acetamido)-3-methoxy benzoic acid] | > 6000 nM | 
19 | CCOc1cc(C(=O)O)ccc1N(Cc1cc(C2CC2)cc(C2CC2)c1)C(=O)CN(Cc1ccccc1C(F)(F)F)S(=O)(=O)c1c(F)cc(F)c(F)c1F [Compound 14, 4-[(3,5-dicyclopropylphenyl)methyl-[2-[(2,3,4,6-tetrafluorophenyl)sulfonyl-[[2-(trifluoromethyl)phenyl]methyl]amino]acetyl]amino]-3-ethoxy-benzoic acid] | 1200 to 6000 nM | 
20 | CCOc1cc(C(=O)O)ccc1N(Cc1cc(C2CC2)cc(C2CC2)c1)C(=O)CN(Cc1cccc(F)c1F)S(=O)(=O)c1cc(F)c(F)c(F)c1F [Compound 9, 4-[(3,5-dicyclopropylphenyl)methyl-[2-[(2,3-difluorophenyl)methyl-(2,3,4,5-tetrafluorophenyl)sulfonyl-amino]acetyl]amino]-3-ethoxy-benzoic acid] | 1200 to 6000 nM | 
